Experimental data as given in PubChem BioAssay (NCI).
“And” between values parts separate entries of the source, which are not always exact repeats. Equal entries are not always repeated.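 Five concentrations, 48 hours, 96-well plates. GI50 marks 50% less growth. TGI marks complete inhibition of growth.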

Legend:
Test in all cases: NCI anticancer screen, dose series, 48 h
DU-145 prostate = system: DU-145 prostate
M14 melanoma = system: M14 melanoma
MALME-3M melanoma = system: MALME-3M melanoma
MDA-MB-231 breast = system: MDA-MB-231 breast
NCI-H226 lung = system: NCI-H226 lung
NCI-H23 lung = system: NCI-H23 lung
NCI-H460 lung = system: NCI-H460 lung
SK-OV-3 ovarian = system: SK-OV-3 ovarian
UACC-257 melanoma = system: UACC-257 melanoma
UO-31 renal = system: UO-31 renal

SMILES	GI50 (DU-145 prostate) [µM]	TGI (DU-145 prostate) [µM]	GI50 (M14 melanoma) [µM]	TGI (M14 melanoma) [µM]	GI50 (MALME-3M melanoma) [µM]	TGI (MALME-3M melanoma)	GI50 (MDA-MB-231 breast) [µM]	TGI (MDA-MB-231 breast) [µM]	GI50 (NCI-H226 lung) [µM]	TGI (NCI-H226 lung)	GI50 (NCI-H23 lung)	TGI (NCI-H23 lung)	GI50 (NCI-H460 lung) [µM]	TGI (NCI-H460 lung)	GI50 (SK-OV-3 ovarian) [µM]	TGI (SK-OV-3 ovarian)	GI50 (UACC-257 melanoma) [µM]	TGI (UACC-257 melanoma)	GI50 (UO-31 renal) [µM]	TGI (UO-31 renal)
O=c1[nH]c2nc(NC3CCOCC3)ncc2cc1Oc1ccc(F)cc1F	> 25	> 25	> 25	> 25	> 25	> 25 µM	> 25	> 25	> 25	> 25 µM	> 25 µM	> 25 µM	> 25	> 25 µM	> 25	> 25 µM	> 25	> 25 µM	> 25	> 25 µM
CC(C)=CCC(OC(=O)C=C(C)C)C1=CC(=O)c2c(O)ccc(O)c2C1=O (stereo not given)	1.72	3.92	3.51	9.57	0.694	3.09 µM and 1.07 µM	1.63	3.89	1.99	4.02 µM and 6.72 µM	2.46 µM and 1.06 µM	7.06 µM and 2.96 µM	5.21	21.1 µM and 6.53 µM	21.2	49.8 µM and 12.4 µM	1.51	4.15 µM and 2.5 µM	0.993	5.49 µM and 7.74 µM
COc1ccc(C(=O)NNc2nc(Cl)nc(N3CCN(C(c4ccccc4)c4ccccc4)CC3)n2)cc1	3.93	13.6	1.75	3.58	1.84	3.64 µM	1.94	3.68	18.9	45.1 µM	1.88 µM	4.02 µM	3.52	11.9 µM	11.9	25.8 µM	2.84	9.06 µM	3.2	18.5 µM
C=CC(=O)Nc1cc(N2CCN(CC)CC2)ccc1Nc1cc(N(C)C(=O)Nc2c(Cl)c(OC)cc(OC)c2Cl)ncn1	4.27	16.4	4.85	18.7	5.06	19.3 µM	3.26	11.5	14.2	35.8 µM	4.36 µM	20 µM	7.67	24.7 µM	12.3	27.5 µM	13.5	30.1 µM	8.53	22.2 µM
O=C(Oc1ccc(CO[N+](=O)[O-])cc1)c1ccccc1	0.289	0.818	0.115	0.271	0.123	0.272 µM	0.144	0.306	0.214	0.518 µM	0.351 µM	1.43 µM	0.239	1.09 µM	0.348	1.3 µM	0.207	0.532 µM	0.172	0.322 µM
Cc1cc(O)c(C2=NN(c3ccc(S(N)(=O)=O)cc3)C(c3ccc(Cl)cc3)C2)c(C)c1Cl (stereo not given)	5.6	17.6	2.62	10.4	14.8	35.2 µM	2.34	11.8	10.5	24.1 µM	5.82 µM	19.9 µM	2.53	7.24 µM	7.75	20.6 µM	11.9	26.8 µM	3.78	19.2 µM
C=C1C(=O)OC2CC(C)C3CC(O)OC(OCC)C3(C)CC12 (stereo not given)	–	> 100	–	28.5	–	23.3 µM	–	34.8	–	63.1 µM	–	30.9 µM	–	38.6 µM	–	87.2 µM	–	31.5 µM	–	53.7 µM
Cc1cc(N=C2C=C(Br)C(=O)C(Br)=C2)cc(CN(CC(=O)O)CC(=O)O)c1O	–	> 100	–	> 100	–	> 100 µM	–	> 100	–	> 100 µM	–	> 100 µM	–	> 100 µM	–	> 100 µM	–	> 100 µM	–	> 100 µM
COC(=O)C1=C(C(=O)OC)C2(C)C=CC1O2 (stereo not given)	–	31.8	–	32.5	–	9.26 µM	–	31	–	39.9 µM	–	32.4 µM	–	> 100 µM	–	> 100 µM	–	29.4 µM	–	17.6 µM
OCc1ccc(-c2cscc2-c2ccc(CO)o2)o1	25.9	> 100	> 100	> 100	> 100	> 100 µM	> 100	> 100	0.112	0.485 µM	64.6 µM	> 100 µM	1.34	5.92 µM	8.98	50.3 µM	0.507	1.91 µM	56.1	> 100 µM
C1=C2CCCC3=Cc4ccccc4OC23Oc2ccccc21	3.73	69.1	3.37	> 100	7.17	> 100 µM	4.23	45.5	> 100	> 100 µM	6.2 µM	> 100 µM	3.47	16.4 µM	3.52	> 100 µM	5.49	> 100 µM	4.86	> 100 µM
C#Cc1nc2ccccc2c(=O)[nH]1	1.63	8.25	1.07	3.06	1.23	3.04 µM	0.318	1.49	0.513	11.7 µM	1.69 µM	4.77 µM	1.79	7.66 µM	6.54	40.1 µM	0.505	3.15 µM	0.383	1.61 µM
c1cncc(CNCc2cccnc2)c1	–	> 100	–	> 100	–	> 100 µM	–	> 100	–	> 100 µM	–	> 100 µM	–	> 100 µM	–	> 100 µM	–	> 100 µM	–	> 100 µM
CC(C)(C)OC(=O)NCCCn1c2c(c3ccccc3c1=O)C(=O)c1ccccc1-2	74.8	> 100	> 100	> 100	32.9	> 100 µM	12.9	48.8	63.5	> 100 µM	13.4 µM	28.8 µM	33.9	> 100 µM	25	> 100 µM	75.4	> 100 µM	71.5	> 100 µM
Cc1nc2c(n1C)C(=O)c1ccccc1C2=O	51.3	> 100	43	> 100	4.74	28.5 µM	> 100	> 100	> 100	> 100 µM	50.4 µM	> 100 µM	18	> 100 µM	> 100	> 100 µM	29.4	> 100 µM	77.6	> 100 µM
CCN(c1cc(-c2ccc(CN3CCOCC3)cc2)cc(C(=O)NCc2c(C)cc(C)[nH]c2=O)c1C)C1CCOCC1	40.6	> 100	19.9	42.3	14.4	28.9 µM	20.4	44.7	16.5	40.8 µM	59.4 µM	> 100 µM	25.5	> 66.8 µM	52.9	> 100 µM	16.2	33.5 µM	14.9	> 51.3 µM
Cn1cc(-c2ccc3nnc(Sc4ccc5ncccc5c4)n3n2)cn1	73.3	> 100	> 100	> 100	> 100	> 100 µM	24.4	96.9	> 59.1	> 100 µM	56 µM	> 100 µM	79.2	> 100 µM	> 73.9	> 100 µM	> 100	> 100 µM	61.9	> 100 µM
COC(=O)C1C(O)C(C)C(O)C(C)C=C(C)C2=C3C(=C(C)C(=O)c4c(O)c(c(C)c(OC(C)=O)c43)NC(=O)C(C)=C/C=C\C(C)C(O)C(C)C1O)OCO2 (stereo not given)	–	> 100	–	68.9	–	38.5 µM	–	77.6	–	> 100 µM	–	63 µM	–	> 100 µM	–	> 100 µM	–	37.4 µM	–	> 100 µM
Cc1nc(Nc2cccnc2)sc1C(=O)/C=C/c1ccc(Cl)cc1	3.57	19.8	3.13	19.5	3.3	23.6 µM	4.7	> 100	2.75	8.12 µM	3.43 µM	40.8 µM	3.5	13.8 µM	3.88	> 100 µM	9.22	> 100 µM	1.81	4.61 µM
C1CC2CN(CCCN3CCOCC3)C(C1)O2 (stereo not given)	–	> 100	–	> 100	–	> 100 µM	–	> 100	–	> 100 µM	–	> 100 µM	–	> 100 µM	–	> 100 µM	–	> 100 µM	–	> 100 µM
S=c1nc(N/N=C/c2ccco2)c2cn[nH]c2[nH]1	61.8	> 100	> 100	> 100	> 100	> 100 µM	> 100	> 100	> 100	> 100 µM	> 100 µM	> 100 µM	17.9	> 100 µM	92.7	> 100 µM	> 100	> 100 µM	98.1	> 100 µM
O=C([O][Sn]([O]C(=O)c1ccccn1)([c]1ccccc1)[c]1ccccc1)c1ccccn1	1.93	4.19	4.56	15.8	1.61	3.49 µM	5.29	18.4	14.7	29.6 µM	3.08 µM	12.8 µM	12.2	26.2 µM	55.5	> 100 µM	1.62	3.61 µM	2.05	4.66 µM
O=c1/c(=C\c2ccc(F)cc2)sc2n1C(c1ccc(F)cc1)C1=C(N=2)c2ccc3ccccc3c2OCC1 (stereo not given)	> 100	> 100	> 100	> 100	> 100	> 100 µM	> 100	> 100	> 100	> 100 µM	> 100 µM	> 100 µM	14.2	> 100 µM	> 100	> 100 µM	> 100	> 100 µM	> 100	> 100 µM
COc1ccc(-c2nc(-c3nc4ccc(F)cc4[nH]3)c3ccccn23)cc1	10.7	40.2	12.9	> 100	5.32	27.1 µM	4.34	30.4	2.72	9.06 µM	18.7 µM	> 100 µM	6.83	> 100 µM	10.3	37.3 µM	9.15	57.2 µM	6.99	56.2 µM
O=C(Nn1c(-c2ccccc2)nc2ccccc2c1=O)c1ccccc1O	–	> 100	–	> 100	–	> 100 µM	–	> 100	–	> 100 µM	–	> 100 µM	–	> 100 µM	–	> 100 µM	–	> 100 µM	–	> 100 µM
Cc1c2c(c(C)c3c4c(oc13)CCCC4)C=NCC2	–	28.5	–	44.5	–	32.6 µM	–	32.9	–	31.5 µM	–	31.9 µM	–	31.2 µM	–	38.1 µM	–	29.5 µM	–	25.8 µM
COc1ccc(C(O)c2cc3c(N)c(C(=O)Nc4cccc(Cl)c4)sc3nc2C)cc1 (stereo not given)	1.16	> 22	0.731	> 36.5	2.48	> 73.4 µM	1.41	> 33.1	1.63	> 43 µM	1.82 µM	> 50.1 µM	1.06	5.53 µM	1.78	> 40.5 µM	8.6	81 µM	2.41	> 56.2 µM
Cc1nc2ccc(NC(=O)CCNC(=O)CCCc3ccc(CC(C(=O)O)C(=O)O)cc3)cc2s1	> 100	> 100	> 100	> 100	> 100	> 100 µM	> 100	> 100	> 100	> 100 µM	> 100 µM	> 100 µM	> 100	> 100 µM	> 100	> 100 µM	> 100	> 100 µM	> 100	> 100 µM
